{"source": "patent US11033562B2", "about": "“Carbohydrate derivatives used for surface modification of immune cells, use thereof and method thereof” (Xiamen Nuokangde Biological Technology Co., Ltd., priority 2018, dated 2021)", "test_system": "CD22-fc", "assay": "Analysis of CD22 ligand on surfaces of NK-92 cells (CD22-fc binding, flow cytometry and confocal)", "assay_type": "cell-based", "conditions": "NK-92 cells incubated with the sialic acid derivative; FIGS. 7A and 7B", "experimental": "Culturing ATCC (American Type Culture Collection)-derived NK-92 (ATCC® CRL2407™) cells (also known as NK-92 cell lines) on a fourth alpha-MEM growth medium (comprising 12.5% (v/v) newborn bovine serum, 12.5% (v/v) horse serum, 100 U/ml recombinant IL-2) in an incubator with 5% (v/v) CO2 atmosphere at 37° C., then replacing the fourth alpha-MEM growth medium with a fifth alpha-MEM growth medium (comprising 2 mMPB-sia), continuing to culture for 48 hours, and washing for three times to obtain MPB-sia modified NK-92 cells, which is referred to as MsNK-92 cells.\nWashing MPB-sia or BPC-sia modified NK-92 cells with PBS buffer for three times, adding 100 μL, PBS, adding 1 μg CD22-fc to obtain a first mixture, then culturing the first mixture on ice for 30 minutes, washing three times with PBS buffer, then adding anti-CD22-PE to obtain a second mixture, culturing the second mixture on ice for 30 minutes, washing three times, then collecting cells, quantifying the extent of CD22 binding by flow cytometry analysis, and imaging by confocal microscopy.\nIncreasing the concentration of MPB-sia enhanced the levels of CD22 ligand expression on cell surfaces reaching a maximum at 4 mM of MPB-sia at 24 hours (FIG. 8A). […] Next, the persistence of CD22 ligands on engineered NK-92 cells was analyzed. […]"}
{"smiles": "CC(=O)N[C@H]1[C@H]([C@H](O)[C@H](O)CO)OC(O)(C(=O)O)C[C@@H]1O", "note": "(stereo partly shown) [sialic acid (sia), sialic acid (N-acetylneuraminic acid)]", "values": [{"measurement": "CD22 binding to NK-92 cells (flow cytometry)", "result": "little binding with CD22 over the background"}]}
